Source: paper PMC6478794, “Identification of a Novel Bcl-2 Inhibitor by Ligand-Based Screening and Investigation of Its Anti-cancer Effect on Human Breast Cancer Cells” (Frontiers in Pharmacology, 2019)
pIC50, pKd: −log10 of the molar value. Where two headings read alike, the source gives them in different places.

Legend:
[1] = target: recombinant human Bcl-2 protein (Homo sapiens, UniProt P10415); experiment: Surface plasmon resonance (SPR) binding assay
Description: The interaction between virtual screening candidates and Bcl-2 was determined using a PlexArray HT biological molecular interaction analyzer (PLEXERA LLC, USA). Candidates were covalently immobilized to the surface of sensor chip following the standard coupling reaction guide. Candidates were dissolved in DMSO to a final concentration of 10 μM. To analyze binding signal, a set of concentration gradient (700, 350, 175, 87.5 nM) of Bcl-2 protein were, respectively, diluted with PBST (1x PBS + 0.1% Tween-20, pH 7.4). PBST was also used as running buffer and samples were injected into the flow cell chamber of the sensor chip one by another with rate of 2 μL/s for 300 s. After the injection stage, running buffer was flowed over the chip surface for 300 s at 2 μL/s to allow the bound analytes to dissociate from the Bcl-2. The response unit (RU) of sample dots on the chip surface was recorded by the interaction analyzer during the whole process. In this way, dissociation curves obtained. HBS-P buffer was used as vehicle controls. Lastly, the changes in RU and the binding curve were measured by the PlexeraDE software (PLEXERA LLC, USA).

MDA-MB-231 cells [2] = experiment: Cell viability CCK-8 assay; type: cell-based; details: Homo sapiens, 48 h
Description: (§1) The human breast cancer cell line MDA-MB-231, T47D, and BT549, were purchased from Cell Bank of Chinese Academy of Sciences. MDA-MB-231 were cultured in L-15 medium with 10% FBS at 37°C with 100% air, and T47D were cultured in DMEM/High glucose medium with 10% FBS at 37°C with 5% CO2. BT549 was cultured in 1,640 medium with 10% FBS at 37°C with 5% CO2.
(§2) Cell viability was measured by Cell Counting Kit-8 (CCK-8) assay following the manufacturer's protocol. Cells were plated at 5 × 10^3 cells per well in 96-well plates. After compound M1 treatment, cells were incubated with 10 μL CCK-8 for 2 h at 37°C with 5% CO2. The results were determined at 450 nm wave length.

T47D cells [3] = experiment: Annexin V-FITC/PI apoptosis assay (flow cytometry); type: cell-based, human; details: 48 h
Description: Cell apoptosis was measured by Annexin V-FITC/PI double-staining Kit following the manufacturer's protocol. After treatment with 8 or 16 μM compound M1 for 48 h, cells were washed twice with cold phosphate buffer saline and then, suspended in 100 μL binding buffer (BD CAT. NO.556547) with 5 μL Annexin-V (BD CAT. NO.556420) and 5 μL PI (BD CAT. NO.556463). And cells were gently vortexed and incubated at room temperature for 15 min in darkness for flow cytometric (Becton Dickison) analysis.

MDA-MB-231 cells [4] = experiment: EdU incorporation assay; type: cell-based, human; details: 4 or 8 μM, 48 h
Description: Cell Proliferation was measured by Cell Light EdU DNA Cell Proliferation Kit. Cells were plated in 96-well culture plates. Cells were treated with 4 or 8 μM compound M1 for 48 h. At the end of treatment, cells were incubated with EdU reagent for 2 h at 37°C. Four percent of paraformaldehyde was used to fix the cells for 15 min. Then, cells were incubated with 0.5% Triton X-100 for 30 min. Washed cells with PBS three times. After that, cells were dyed with reaction cocktail for 30 min, and stained cell nucleus with 5 μg/mL of Hoechst 33,342 for 30 min. Images were observed by fluorescent microscope.

MDA-MB-231 cells [5] = experiment: Clonogenic assay; type: cell-based, human; details: 4 or 8 μM, 48 h, then 10 days
Description: The cells were plated at 200 cells per well in six-well culture plates followed by compound M1 for 48 h. At the end of treatment, the cells were cultured with fresh medium, and were grown at 37°C for 10 days. After colony formation, the cells were washed with PBS and immobilized by 4% formaldehyde at room temperature for 30 min. Finally, the cells were dyed with 0.5% crystal violet.

Bcl-2 [6] = experiment: Western blot of Bcl-2 expression; type: cell-based, human; details: MDA-MB-231, T47D, and BT549 cells; different doses 48 h or 8 μM over time
Description: (§3) After compound M1 treatment, cells were lysed with RIPA buffer supplemented with protease inhibitor (Selleck) on ice for 30 min following by centrifugation at 14,000 × g for 15 min. Protein concentrations of the lysates were determined by BCA assay kit. Equivalent amounts of cellular protein were separated by SDS-PAGE and transferred to polyvinylidene difluoride membranes. And then, the membranes were blocked with 5% skim milk in TBST. The membranes were incubated with primary antibodies and peroxidase-conjugated secondary antibodies. Finally, the membranes were visualized with an enhanced chemiluminescent detection kit.

MDA-MB-231 cells [7] = experiment: Mitochondrial membrane potential (JC-1 staining); type: cell-based, human; details: 2 or 4 μM, 48 h
Description: The MMP was measured using JC-1 assay kit according to the manufacturer's protocol. Cells were treated with 2 or 4 μM compound M1 for 48 h. The cells were cultured with JC-1 staining reagent (1x) at 37°C for 20 min. Cells were washed twice by JC-1 staining buffer. Next, the fluorescence intensity of JC-1 aggregate or monomer was observed by fluorescent microscopic. The ratio of aggregates to monomers was estimated as a symbol of mitochondrial membrane potential.

MDA-MB-231 cells [8] = experiment: Detection of reactive oxygen species (DCFH-DA); type: cell-based, human; details: 2 or 4 μM, 48 h
Description: Cells were treated with 2 or 4 μM compound M1 for 48 h. After that, cells were rinsed twice with PBS and incubated with DCFH-DA (10 μmol/L) at 37°C in a darkroom. The fluorescence intensity of DCF was detected at an emission wavelength of 525 nm and excitation wavelength of 488 nm.

T47D cells [9] = experiment: Western blot of cytochrome c in mitochondrial and cytosol fraction; type: cell-based, human; details: 4 or 8 μM, 48 h
Description: as §3

T47D and BT549 cells = experiment: Western blot of cleaved caspase-3 and cleaved PARP; type: cell-based, human; details: 48 h
Description: as §3

[10] = test system: MDA-MB-231, T47D, and BT549 cells; experiment: CCK-8 cell viability, dose and time course in three breast cancer cell lines; type: cell-based, human; details: series of doses 72 h; time course at 5, 2, or 3 μM
Description: as §1, §2

[11] = design: method as in Seymour et al., 2013; Vandenberg and Cory, 2013; details: ref Seymour et al., 2013, Vandenberg and Cory, cited from earlier work
hematologic malignancies = details: preclinical researches; cited from earlier work
[12] = design: method as in Schoenwaelder et al., 2011; details: in vivo; ref Schoenwaelder et al., 2011; cited from earlier work
Bcl-2 [13] = details: cited from earlier work
Bcl-xl = details: cited from earlier work
Mcl-1 = details: cited from earlier work
[14] = cited from earlier work
[15] = compound immobilized on chip, Bcl-2 protein 700 nM, read-out: KD, dissociation equilibrium constant

Chain of recombinant human Bcl-2 protein (P10415 whole entry): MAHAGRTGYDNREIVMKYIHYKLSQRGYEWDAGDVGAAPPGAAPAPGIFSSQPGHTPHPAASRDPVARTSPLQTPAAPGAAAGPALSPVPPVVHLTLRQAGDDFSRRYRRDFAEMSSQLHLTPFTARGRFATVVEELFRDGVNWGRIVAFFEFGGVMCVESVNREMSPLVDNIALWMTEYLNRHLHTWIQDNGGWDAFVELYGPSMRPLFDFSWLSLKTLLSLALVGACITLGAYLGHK

Work on CCN(CC)c1ccc(N2C(C(C)=O)=NN(c3ccc(Cl)cc3)C2c2ccccc2OCc2ccc(Cl)cc2Cl)cc1 (stereo not drawn) [M7] yielded a pKd [1, 15] of 5.80 and a pIC50 (MDA-MB-231 cells [2]) of under 4.30.
Work on Cc1ccc(S(=O)(=O)N(Cc2ccc(Cl)cc2)c2ccccc2C(=O)Nc2ccc(S(=O)(=O)Nc3ccc(F)cc3)cc2)cc1 [M5] yielded a pKd [1, 15] of 6.24 and a pIC50 (MDA-MB-231 cells [2]) of under 4.30.
COc1cc(N2C(C(C)=O)=NN(c3ccc(C)cc3)C2c2ccccc2OCc2ccccc2F)ccc1NC(=O)C(C)C (stereo not drawn) [M1] gave a koff [1] of 0.00142 s⁻¹, a kon [1] of 4480 M⁻¹ s⁻¹ and a pKd ([1]; M1, text and Figure 5B, read-out: KD) of 6.43. The pKd [1, 15] was 6.50, the pIC50 (MDA-MB-231 cells [2]) was 5.30 and the “apoptosis (Annexin V staining)” value (T47D cells [3]) was “dose-dependent increase in apoptosis”. The EdU-positive cells (MDA-MB-231 cells [4]) was “reduced number of EdU-positive cells”, the clonogenicity (MDA-MB-231 cells [5]) was “reduced in a dose-dependent manner” and the “protein expression of Bcl-2” value (Bcl-2 [6]) was “decreased the protein expression of Bcl-2”. The “mitochondrial membrane potential (MMP)” value (MDA-MB-231 cells [7]) was “caused the disturbance of MMP”, the “level of generated ROS” value (MDA-MB-231 cells [8]) was “elevation in the level of generated ROS” and the “release of cytochrome c from mitochondria to cytosol” value (T47D cells [9]) was “increased the release of cytochrome c”. The “cleaved PARP and cleaved caspase-3” value (T47D and BT549 cells) was “increase” and the “cell proliferation (cell viability)” value [10] was “inhibits cell proliferation in concentration- and time- dependent”.
In the case of COc1ccc(/C=c2/sc3n(c2=O)C(c2ccc(Cl)cc2)C(C(=O)Nc2ccccc2)=C(C)N=3)cc1COc1ccc(F)cc1F (stereo not drawn) [M6], the pKd [1, 15] was 7.16 and the pIC50 (MDA-MB-231 cells [2]) was under 4.30.
For CC1(C)CCC(CN2CCN(c3ccc(C(=O)NS(=O)(=O)c4ccc(NCC5CCOCC5)c([N+](=O)[O-])c4)c(Oc4cnc5[nH]ccc5c4)c3)CC2)=C(c2ccc(Cl)cc2)C1 [ABT-199], the tumor lysis syndrome ([11]; patients with chronic lymphocytic leukemia) is given as “tumor lysis syndrome was caused”, the “activity in patients with lymphoma” value ([11]; phase I trials) is given as “greater activity than ABT-263” and the “effects on platelet counts” value ([11]; phase I trials) is given as “no significant effects on platelet counts”.
For Cc1ccc(S(=O)(=O)N(Cc2ccc(Cl)cc2)c2ccccc2C(=O)Nc2ccccc2C(=O)NC(C)c2ccccc2)cc1 (stereo not drawn) [M2], the pKd [1, 15] was 6.39 and the pIC50 (MDA-MB-231 cells [2]) was under 4.30.
COc1cc(-c2cc(-c3ccccc3)nc(SCC(=O)Nc3cc(Cl)ccc3C)c2C#N)ccc1OCc1ccccc1 [M4] gave a pKd [1, 15] of 5.32 and a pIC50 (MDA-MB-231 cells [2]) of under 4.30.
In the case of CC1(C)CCC(c2ccc(Cl)cc2)=C(CN2CCN(c3ccc(C(=O)NS(=O)(=O)c4ccc(N[C@H](CCN5CCOCC5)CSc5ccccc5)c(S(=O)(=O)C(F)(F)F)c4)cc3)CC2)C1 [ABT-263], the “cytotoxicity against hematologic malignancies” value (hematologic malignancies) is given as “significant cytotoxicity” and the thrombocytopenia [12] is given as “can cause thrombocytopenia”.
In the case of CCOc1cccc(C2N(c3ccccc3)N=C(C(C)=O)N2c2ccc(N3CCOCC3)c(Cl)c2)c1OCc1ccc(Cl)cc1Cl (stereo not drawn) [M8], the pKd [1, 15] was 4.97 and the pIC50 (MDA-MB-231 cells [2]) was under 4.30.
In the case of CN(C)CC[C@H](CSc1ccccc1)Nc1ccc(S(=O)(=O)NC(=O)c2ccc(N3CCN(Cc4ccccc4-c4ccc(Cl)cc4)CC3)cc2)cc1[N+](=O)[O-] [ABT-737], the “affinity with Bcl-2” value (Bcl-2 [13]) is listed as “high affinity”, the “affinity with Bcl-xl” value (Bcl-xl) is listed as “high affinity” and the “cytotoxicity against hematologic malignancies” value (hematologic malignancies) is listed as “significant cytotoxicity”. The thrombocytopenia [12] was “can cause thrombocytopenia”.
For Cc1cc(C(=O)C2=C(O)C(=O)N(CCCN3CCOCC3)C2c2cccc(Oc3ccccc3)c2)ccc1OCc1ccccc1 (stereo not drawn) [M3], the pKd [1, 15] was 6.07 and the pIC50 (MDA-MB-231 cells [2]) was under 4.30.
For AT-101, the “affinity with Bcl-2” value (Bcl-2 [13]) is listed as “submicromolar concentrations”, the “affinity with Bcl-xl” value (Bcl-xl) is listed as “submicromolar concentrations” and the “affinity for Mcl-1” value (Mcl-1) is listed as “submicromolar concentrations”. For the same compound, the clinical activity ([14]; early phase II trials, monotherapy or combination, lung and prostate cancers, ref Ready et al., 2011) was “failed to exert significant clinical activity” and the tolerability in patients ([14]; ref Liu et al., 2009) was “well-tolerated”.
